Values of other authors, collected in patent US20060024236A1, “Bowel preparation for virtual colonoscopy” (priority 2004, published 2006).

Key:
[1] = compared with PEG
[2] = compared with PEG, cleansing before CC, meta-analysis of trials

Row | SMILES | residual colonic fluid at VC [1] | efficacy of colonic cleansing [2] | tolerability of oral cleansing agent [2] | opacification of residual colonic fluid (oral) | tagging of residual fecal material to distinguish it from true colonic polyps (oral, given as part of the colon prep) | interference with subsequent CC examination (orally administered)
1 | O=P(O)(O)O [NaP, sodium phosphate] | significantly less residual colonic fluid | more efficacious | better tolerated |  |  | 
2 | O=S(=O)([O-])[O-].[Ba+2] [barium sulfate] |  |  |  | does not adequately opacify | effective | does not interfere
